From patent publication US20120230951A1 (priority 2011, published 2012)
Counter-ions that a name gives are not always drawn.

System: GT-1a pRLuc H771b 75 S/I subgenomic replicon cell line
Experiment: HCV GT-1a replicon luciferase reporter assay
Assay type: cell-based
Details: Hepatitis C virus, GT1A, 72 h, read-out: GT-1a (IC50) (nM)
From the text: Determination of compounds HCV GT1b inhibitory replicon activity using the replicon luciferase reporter assay
The 2209-23 cell line was developed at Roche by stable transfection of the hepatoma cell line Huh-7 with a GT-1b Con1 subgenomic bicistronic replicon as previously described. Subgenomic replicon cell line was established in cured Huh7 cells, obtained from R. Bartenschlager (J. Virol. 2003 March; 77 (5):3007-19) The GT-1a H77 subgenomic replicon vector pRLuc H771b 75 S/I, was created by replacing the non structural region of the GT-1b Con1 subgenomic replicon by the one of the H77 strain, except for the first 75 amino acids of the NS3 protein that are from GT-1b Con1 strain. (J. Virol. 2001 77:5352-59) The GT-1a pRLuc H771b 75 S/I subgenomic replicon cell line was established in cured Huh7 cells, obtained from R. Bartenschlager. (J. Virol. 2003 March; 77 (5):3007-19)
All the subgenomic replicon cell lines were cultured in Dulbecco's Modified Eagle Medium (DMEM-Glutamax™-I; Invitrogen Cat #10569-010). The medium was supplemented with 10% Fetal Bovine Serum (Invitrogen Cat #10082-147), 1% penicillin/streptomycin (Mediatech Cat #30-002-CI) and 500 μg/ml of G418 (Mediatech Cat #30-234-CI). Cells were maintained at 37° C. in a humidified 5% CO2 atmosphere.
2209-23 cells were plated at a cell density of 5000 cells per well in 96 well plates (Becton Dickinson, Cat #35 3296). Cells were plated in 90 μl of Dulbecco's Modified Eagle Medium (DMEM-Glutamax™-I), (Invitrogen Cat #10569-010) medium was supplemented with 5% Fetal Bovine Serum (Invitrogen Cat #10082-147), 1% penicillin/streptomycin (Mediatech Cat #30-002-CI). The pRluc H771b 75 S/I cells were plated in 96-well plate at 3000 cells/well in DMEM-Glutamax™-I containing 5% FBS and 1% penicillin/streptomycin in 90 μl final volume. Cells were allowed to equilibrate for 24 hours at 37° C. and 5% CO2 at which time compounds were added. Compounds (or medium as a control) were added 24 hours post-plating in 3 fold dilutions at a final DMSO concentration of 1% in 10 ul volume. Renilla luciferase reporter signal was read 72 hours after addition of compounds using the Renilla Luciferase Assay System (Promega, cat #E2820). EC50 values were defined as the compound concentration at which a 50% reduction in the levels of renilla luciferase reporter was observed as compared to control samples in the absence of compound and was determined by non-linear fitting of compound dose-response data. The EC50 was approximated if maximum percentage inhibition was less than 90% and more than 70%.

SMILES	IC50 [nM]
COC(=O)N[C@H]1CCc2cccc3c2N(C1=O)[C@H](c1ncc(-c2ccc4cc(-c5ccc(-c6cnc([C@@H]7CCCN7C(=O)[C@@H](NC(=O)OC)C(C)C)[nH]6)cn5)ccc4c2)[nH]1)C3 [Compound I-24, ((2S,5S)-2-{4-[6-(5-{2-[(S)-1-((S)-2-Methoxycarbonylamino-3-methyl-butyryl)-pyrrolidin-2-yl]-3H-imidazol-4-yl}-pyridin-2-yl)-naphthalen-2-yl]-1H-imidazol-2-yl}-4-oxo-1,2,4,5,6,7-hexahydro-azepino[3,2,1-hi]indol-5-yl)-carbamic acid methyl ester di-trifluoroacetic acid salt]	1.16
COC(=O)N[C@H]1CCc2cc(C(N)=O)cc3c2N(C1=O)[C@H](c1ncc(-c2ccc(-c4ccc(-c5cnc([C@H]6CCCN6C(=O)[C@H](NC(=O)OC)C(C)C)[nH]5)cc4)cc2)[nH]1)C3 [Compound I-27, {(2S,5S)-9-Carbamoyl-2-[5-(4′-{2-[(R)-1-((R)-2-methoxycarbonylamino-3-methyl-butyryl)-pyrrolidin-2-yl]-3H-imidazol-4-yl}-biphenyl-4-yl)-1H-imidazol-2-yl]-4-oxo-1,2,4,5,6,7-hexahydro-azepino[3,2,1-hi]indol-5-yl}-carbamic acid methyl ester]	5.08
COC(=O)N[C@H]1CCc2cccc3c2N(C1=O)[C@H](c1ncc(-c2ccc(-c4ccc(-c5[nH]c([C@@H]6CCCN6C(=O)[C@@H](NC(=O)OC)C(C)C)nc5Cl)cc4)cc2)[nH]1)C3 [Compound I-30, {(2S,5S)-2-[5-(4′-{5-Chloro-2-[(S)-1-((S)-2-methoxycarbonylamino-3-methyl-butyryl)-pyrrolidin-2-yl]-3H-imidazol-4yl}-biphenyl-4-yl)-1H-imidazol-2-yl]-4-oxo-1,2,4,5,6,7-hexahydro-azepino[3,2,1-hi]indol-5-yl}-carbamic acid methyl ester]	1
COC(=O)N[C@H]1CCc2cccc3c2N(C1=O)[C@H](c1ncc(-c2ccc(-c4ccc(-c5[nH]c([C@@H]6CC(F)(F)CN6C(=O)[C@@H](NC(=O)OC)C(C)C)nc5Cl)cc4)cc2)[nH]1)C3 [Compound I-32, {(2S,5S)-2-[5-(4′-{5-Chloro-2-[(S)-4,4-difluoro-1-((S)-2-methoxycarbonylamino-3-methyl-butyryl)-pyrrolidin-2-yl]-3H-imidazol-4yl}-biphenyl-4-yl)-1H-imidazol-2-yl]-4-oxo-1,2,4,5,6,7-hexahydro-azepino[3,2,1-hi]indol-5-yl}-carbamic acid methyl ester]	5.78
COC(=O)N[C@H]1CCc2cccc3c2N(C1=O)[C@H](c1ncc(-c2ccc(-c4ccc(-c5cnc([C@@H]6C[C@H](O)CN6C(=O)[C@@H](NC(=O)OC)C(C)C)[nH]5)cc4)cc2)[nH]1)C3 [Compound I-33, {(2S,5S)-2-[5-(4′-{2-[(2S,4S)-4-Hydroxy-1-((S)-2-methoxycarbonylamino-3-methyl-butyryl)-pyrrolidin-2-yl]-3H-imidazol-4-yl}-biphenyl-4-yl)-1H-imidazol-2-yl]-4-oxo-1,2,4,5,6,7-hexahydro-azepino[3,2,1-hi]indol-5-yl}-carbamic acid methyl ester]	46.1
COC(=O)N[C@H]1CCc2cccc3c2N(C1=O)[C@H](c1ncc(-c2ccc(-c4ccc(-c5cnc([C@@H]6CCCN6C(=O)[C@@H](NC(=O)OC)C(C)C)[nH]5)cn4)cc2)[nH]1)C3 [Compound I-34, ((2S,5S)-2-{5-[4-(5-{2-[(S)-1-((S)-2-Methoxycarbonylamino-3-methyl-butyryl)-pyrrolidin-2-yl]-3H-imidazol-4-yl}-pyridin-2-yl)-phenyl]-1H-imidazol-2-yl}-4-oxo-1,2,4,5,6,7-hexahydro-azepino[3,2,1-hi]indol-5-yl)-carbamic acid methyl ester]	86.7
COC(=O)N[C@H]1CCc2cccc3c2N(C1=O)[C@H](c1ncc(-c2ccc(-c4ccc(-c5cnc([C@@H]6CCCN6C(=O)[C@@H](NC(=O)OC)C(C)C)[nH]5)cc4)cc2F)[nH]1)C3 [Compound I-36, {(2S,5S)-2-[5-(3-Fluoro-4′-{2-[(S)-1-((S)-2-methoxycarbonylamino-3-methyl-butyryl)-pyrrolidin-2-yl]-1H-imidazol-4-yl}-biphenyl-4-yl)-1H-imidazol-2-yl]-4-oxo-1,2,4,5,6,7-hexahydro-azepino[3,2,1-hi]indol-5-yl}-carbamic acid methyl ester]	13.8
COC(=O)N[C@H]1CCc2cccc3c2N(C1=O)[C@H](c1ncc(-c2ccc(-c4ccc(-c5cnc([C@@H]6CCCN6C(=O)[C@@H](NC(=O)OC)C(C)C)[nH]5)cc4F)cc2)[nH]1)C3 [Compound I-37, {(2S,5S)-2-[5-(2′-Fluoro-4′-{2-[(S)-1-((S)-2-methoxycarbonylamino-3-methyl-butyryl)-pyrrolidin-2-yl]-1H-imidazol-4-yl}-biphenyl-4-yl)-1H-imidazol-2-yl]-4-oxo-1,2,4,5,6,7-hexahydro-azepino[3,2,1-hi]indol-5-yl}-carbamic acid methyl ester]	5.22
COC(=O)N[C@H]1CCc2cccc3c2N(C1=O)[C@H](c1ncc(-c2ccc(-c4ccc(-c5cnc([C@@H]6CCCN6C(=O)[C@@H](NC(=O)OC)C(C)C)[nH]5)cc4C#N)cc2)[nH]1)C3 [Compound I-38, {(2S,5S)-2-[5-(2′-Cyano-4′-{2-[(S)-1-((S)-2-methoxycarbonylamino-3-methyl-butyryl)-pyrrolidin-2-yl]-1H-imidazol-4-yl}-biphenyl-4-yl)-1H-imidazol-2-yl]-4-oxo-1,2,4,5,6,7-hexahydro-azepino[3,2,1-hi]indol-5-yl}-carbamic acid methyl ester]	22.4
COC(=O)N[C@H]1CCc2cccc3c2N(C1=O)[C@H](c1ncc(-c2ccc(-c4ccc(-c5cnc([C@@H]6C[C@@H](C#N)CN6C(=O)[C@@H](NC(=O)OC)C(C)C)[nH]5)cc4)cc2)[nH]1)C3 [Compound I-39, {(2S,5S)-2-[5-(4′-{2-[(2S,4R)-4-Cyano-1-((S)-2-methoxycarbonylamino-3-methyl-butyryl)-pyrrolidin-2-yl]-3H-imidazol-4-yl}-biphenyl-4-yl)-1H-imidazol-2-yl]-4-oxo-1,2,4,5,6,7-hexahydro-azepino[3,2,1-hi]indol-5-yl}-carbamic acid methyl ester]	5.34
COC(=O)N[C@H]1CCc2cccc3c2N(C1=O)[C@H](c1ncc(-c2ccc(-c4ccc(-c5cnc([C@@H]6C[C@H](C#N)CN6C(=O)[C@@H](NC(=O)OC)C(C)C)[nH]5)cc4)cc2)[nH]1)C3 [Compound I-40, {(2S,5S)-2-[5-(4′-{2-[(2S,4S)-4-Cyano-1-((S)-2-methoxycarbonylamino-3-methyl-butyryl)-pyrrolidin-2-yl]-3H-imidazol-4-yl}-biphenyl-4-yl)-1H-imidazol-2-yl]-4-oxo-1,2,4,5,6,7-hexahydro-azepino[3,2,1-hi]indol-5-yl}-carbamic acid methyl ester]	7.85
COC(=O)N[C@H]1CCc2cccc3c2N(C1=O)[C@H](c1ncc(-c2ccc(-c4ccc5cc(-c6cnc([C@@H]7C[C@H](C#N)CN7C(=O)[C@@H](NC(=O)OC)C(C)C)[nH]6)ccc5c4)cc2)[nH]1)C3 [Compound I-41, {(2S,5S)-2-{5-[4-(6-{2-[(2S,4S)-4-Cyano-1-((S)-2-methoxycarbonylamino-3-methyl-butyryl)-pyrrolidin-2-yl]-3H-imidazol-4-yl}-naphthalen-2-yl)-phenyl]-1H-imidazol-2-yl]-4-oxo-1,2,4,5,6,7-hexahydro-azepino[3,2,1-hi]indol-5-yl}-carbamic acid methyl ester]	2.49
COC(=O)N[C@H]1CCc2cccc3c2N(C1=O)[C@H](c1ncc(-c2ccc(-c4ccc5cc(-c6cnc([C@@H]7CC(F)(F)CN7C(=O)[C@@H](NC(=O)OC)C(C)C)[nH]6)ccc5c4)cc2)[nH]1)C3 [Compound I-42, {(2S,5S)-2-{5-[4-(6-{2-[(S)-4,4-Difluoro-1-((S)-2-methoxycarbonylamino-3-methyl-butyryl)-pyrrolidin-2-yl]-3H-imidazol-4-yl}-naphthalen-2-yl)-phenyl]-1H-imidazol-2-yl}-4-oxo-1,2,4,5,6,7-hexahydo-azepino[3,2,1-hi]indol-5-yl}-carbamic acid methyl ester]	1.17
COC[C@H](NC(=O)OC)C(=O)N1CCC[C@H]1c1ncc(-c2ccc(-c3ccc(-c4cnc([C@@H]5Cc6cccc7c6N5C(=O)[C@@H](NC(=O)OC)CC7)[nH]4)cc3)cc2)[nH]1 [Compound I-43]	5.64
